Source: ChEMBL document CHEMBL1133002 (J Med Chem, 2000)

What was measured:
[1] = system: Mus musculus; assay: (§1) potential antinociceptive activity initially at a screening dose of 30 mg/kg po in the mouse abdominal irritant test(MAIT) using acetylcholine bromide as irritant; type: functional; conditions: Abdomen
[2] = target: T1, Alpha-2A adrenergic receptor (Rattus norvegicus, UniProt P22909); assay: in vitro alpha-2A adrenergic receptor binding assay from rats, using RX 821002 as the displaceable ligand
T1 sequence (P22909 whole entry): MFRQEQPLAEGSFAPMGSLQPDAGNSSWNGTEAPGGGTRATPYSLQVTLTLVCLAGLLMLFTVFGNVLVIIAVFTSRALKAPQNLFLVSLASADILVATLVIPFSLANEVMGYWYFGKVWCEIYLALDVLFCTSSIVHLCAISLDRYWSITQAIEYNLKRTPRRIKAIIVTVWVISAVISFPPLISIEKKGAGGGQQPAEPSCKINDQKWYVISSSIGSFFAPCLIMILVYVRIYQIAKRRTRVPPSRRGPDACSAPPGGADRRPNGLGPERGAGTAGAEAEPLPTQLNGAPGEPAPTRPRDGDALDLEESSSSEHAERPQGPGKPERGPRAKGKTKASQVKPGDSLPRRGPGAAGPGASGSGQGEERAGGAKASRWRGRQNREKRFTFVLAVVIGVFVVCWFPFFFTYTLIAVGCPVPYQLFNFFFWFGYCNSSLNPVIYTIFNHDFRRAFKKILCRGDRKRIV

[3] = target: T2, Alpha-2C adrenergic receptor (Rattus norvegicus, UniProt P22086); assay: in vitro alpha-2C adrenergic receptor binding assay from rats, using RX 821002 as the displaceable ligand
T2 sequence (P22086 whole entry): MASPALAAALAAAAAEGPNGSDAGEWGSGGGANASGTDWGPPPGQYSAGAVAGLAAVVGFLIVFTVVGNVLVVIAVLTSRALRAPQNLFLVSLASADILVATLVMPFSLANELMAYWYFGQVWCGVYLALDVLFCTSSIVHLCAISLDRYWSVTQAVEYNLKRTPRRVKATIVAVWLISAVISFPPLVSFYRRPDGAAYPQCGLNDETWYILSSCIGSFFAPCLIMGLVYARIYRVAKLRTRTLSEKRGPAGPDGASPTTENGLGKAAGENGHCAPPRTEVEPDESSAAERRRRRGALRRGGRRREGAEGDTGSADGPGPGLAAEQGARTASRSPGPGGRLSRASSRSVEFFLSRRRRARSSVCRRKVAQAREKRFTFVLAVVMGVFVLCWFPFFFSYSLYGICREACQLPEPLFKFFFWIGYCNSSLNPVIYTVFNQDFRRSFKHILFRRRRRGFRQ

[4] = target: T3, Adrenergic receptor alpha-1 (Rattus norvegicus, UniProt P15823+P23944+P43140); assay: in vitro alpha-1 adrenergic receptor binding assay from rats, using RX 821002 as the displaceable ligand; type: protein assay
T3 sequence (P15823 whole entry): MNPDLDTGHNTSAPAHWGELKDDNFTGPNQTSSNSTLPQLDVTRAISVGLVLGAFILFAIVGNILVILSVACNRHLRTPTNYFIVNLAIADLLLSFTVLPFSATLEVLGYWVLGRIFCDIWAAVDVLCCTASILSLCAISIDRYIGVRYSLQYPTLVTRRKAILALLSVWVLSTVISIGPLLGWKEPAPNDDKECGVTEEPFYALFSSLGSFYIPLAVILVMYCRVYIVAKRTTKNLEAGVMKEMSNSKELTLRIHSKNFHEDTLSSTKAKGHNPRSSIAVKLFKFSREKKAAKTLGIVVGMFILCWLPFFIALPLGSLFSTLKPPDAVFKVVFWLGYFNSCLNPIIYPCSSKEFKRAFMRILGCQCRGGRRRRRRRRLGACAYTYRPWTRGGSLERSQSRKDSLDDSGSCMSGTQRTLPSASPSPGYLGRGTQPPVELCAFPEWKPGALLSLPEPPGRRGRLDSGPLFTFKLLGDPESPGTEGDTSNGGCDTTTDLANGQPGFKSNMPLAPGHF
T3 sequence (P23944 whole entry): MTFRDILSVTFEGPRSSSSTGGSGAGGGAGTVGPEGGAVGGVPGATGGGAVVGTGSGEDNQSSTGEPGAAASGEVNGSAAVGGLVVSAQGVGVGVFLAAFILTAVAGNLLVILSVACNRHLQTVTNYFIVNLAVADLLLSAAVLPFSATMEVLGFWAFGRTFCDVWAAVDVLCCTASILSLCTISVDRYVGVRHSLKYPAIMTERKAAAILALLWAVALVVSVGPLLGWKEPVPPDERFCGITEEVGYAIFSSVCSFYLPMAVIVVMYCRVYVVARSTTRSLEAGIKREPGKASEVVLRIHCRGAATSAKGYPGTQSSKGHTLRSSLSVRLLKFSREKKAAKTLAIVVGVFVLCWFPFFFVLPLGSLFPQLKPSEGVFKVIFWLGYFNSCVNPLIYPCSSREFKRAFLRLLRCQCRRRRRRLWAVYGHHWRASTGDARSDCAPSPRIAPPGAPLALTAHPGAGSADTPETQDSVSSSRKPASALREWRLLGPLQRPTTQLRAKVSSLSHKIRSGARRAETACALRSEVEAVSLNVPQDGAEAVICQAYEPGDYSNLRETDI
T3 sequence (P43140 whole entry): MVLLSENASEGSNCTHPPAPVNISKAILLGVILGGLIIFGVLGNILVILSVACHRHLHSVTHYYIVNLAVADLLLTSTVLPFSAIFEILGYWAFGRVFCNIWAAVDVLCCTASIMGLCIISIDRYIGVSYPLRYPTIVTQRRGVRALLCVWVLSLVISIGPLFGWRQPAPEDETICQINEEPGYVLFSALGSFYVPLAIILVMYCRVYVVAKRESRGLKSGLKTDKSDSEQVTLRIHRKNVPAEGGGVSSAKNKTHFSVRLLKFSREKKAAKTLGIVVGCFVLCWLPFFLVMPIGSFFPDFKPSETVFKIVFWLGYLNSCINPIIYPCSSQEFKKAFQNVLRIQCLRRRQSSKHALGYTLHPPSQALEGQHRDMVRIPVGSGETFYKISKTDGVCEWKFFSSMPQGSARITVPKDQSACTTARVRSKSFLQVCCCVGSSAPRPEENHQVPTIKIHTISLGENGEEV

[5] = target: T4, Alpha-2B adrenergic receptor (Rattus norvegicus, UniProt P19328); assay: in vitro alpha-2B adrenergic receptor binding assay from rats, using RX 821002 as the displaceable ligand
T4 sequence (P19328 whole entry): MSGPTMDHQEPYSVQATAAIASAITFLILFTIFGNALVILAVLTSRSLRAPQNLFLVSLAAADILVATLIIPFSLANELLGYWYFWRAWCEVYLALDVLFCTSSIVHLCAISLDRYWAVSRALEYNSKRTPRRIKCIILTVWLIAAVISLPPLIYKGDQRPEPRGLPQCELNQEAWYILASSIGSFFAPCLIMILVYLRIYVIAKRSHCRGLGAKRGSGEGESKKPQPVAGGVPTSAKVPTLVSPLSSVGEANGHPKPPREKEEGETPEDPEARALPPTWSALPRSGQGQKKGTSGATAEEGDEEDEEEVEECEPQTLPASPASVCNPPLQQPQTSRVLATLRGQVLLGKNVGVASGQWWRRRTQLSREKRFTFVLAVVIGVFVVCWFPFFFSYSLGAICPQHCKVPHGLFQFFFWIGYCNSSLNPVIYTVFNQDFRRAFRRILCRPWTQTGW

[6] = species: Rattus norvegicus; assay: ED50 value was measured using rat air-induced abdominal irritant test(RAIT); type: functional; conditions: Abdomen
[7] = species: Mus musculus; assay: Peroral ED50 value was measured using mouse abdominal irritant test(MAIT); type: functional; conditions: Abdomen, po
[8] = species: Mus musculus; assay: Peroral ED50 value was measured using mouse 48 degree hot plate test; type: functional; conditions: po
[9] = species: Mus musculus; assay: Peroral ED50 value was measured using mouse tail flick test; type: functional; conditions: po
[10] = system: Mus musculus; assay: as §1; conditions: Abdomen, read-out: Inhibition
[11] = target: T5, Alpha-2C adrenergic receptor (Rattus norvegicus) (UniProt P22086); assay: % inhibition of alpha-2C adrenergic receptor binding at 1 uM
T5 sequence (whole entry): T2 sequence (P22086 whole entry)

[12] = target: T6, Alpha-2A adrenergic receptor (Rattus norvegicus) (UniProt P22909); assay: % inhibition of alpha-2A adrenergic receptor binding at 1 uM
T6 sequence (whole entry): T1 sequence (P22909 whole entry)

SMILES: Cc1sc(C)c2c1CCC=C2c1c[nH]cn1
- inhibition in vivo at 30 mg/kg [1]: 40%
- Ki [2]: 25 nM
- Ki [3]: 26 nM
- Ki [4]: 110 nM
- Ki [5]: 100 nM

SMILES: Cc1sc(C)c2c1CCCC2c1c[nH]cn1 (configuration not stated)
- inhibition in vivo at 30 mg/kg [1]: 93%
- Ki [2]: 68 nM
- Ki [3]: 205 nM
- ED50 [6]: 7.9 mg/kg
- Ki [4]: 48 nM
- Ki [5]: 141 nM

SMILES: c1cc(-c2c[nH]cn2)c2ccsc2c1
- inhibition in vivo at 30 mg/kg [1]: 60%
- Ki [2]: 277 nM
- Ki [4]: 343 nM
- Ki [5]: 663 nM

SMILES: c1nc(C2CCCc3sccc32)c[nH]1 (configuration not stated)
- inhibition in vivo at 30 mg/kg [1]: 100%
- Ki [2]: 27 nM
- Ki [3]: 172 nM
- ED50 [6]: 0.9 mg/kg
- Ki [4]: 110 nM
- Ki [5]: 99 nM

SMILES: C1=C(c2c[nH]cn2)c2sccc2CC1
- inhibition in vivo at 30 mg/kg [1]: 60%
- Ki [2]: 224 nM
- Ki [4]: 399 nM
- Ki [5]: 940 nM

SMILES: C1=C(c2c[nH]cn2)c2ccsc2CC1
- inhibition in vivo at 30 mg/kg [1]: 100%
- ED50 [7]: 11.6 mg/kg
- Ki [2]: 254 nM
- ED50 [8]: 25.9 mg/kg
- ED50 [9]: 100 mg/kg
- ED50 [6]: 15.1 mg/kg
- Ki [4]: 443 nM
- Ki [5]: 621 nM

SMILES: Clc1cccc(Cl)c1NC1=NCCN1 [CLONIDINE]
- inhibition in vivo at 30 mg/kg [1]: 0.05%
- ED50 [6]: 0.1 mg/kg

SMILES: Cc1cccc([C@H](C)c2cnc[nH]2)c1C [DEXMEDETOMIDINE]
- inhibition in vivo at 30 mg/kg [10]: 0.09%
- Ki [2]: 5 nM
- ED50 [6]: 0.12 mg/kg

SMILES: c1nc(C2CCCc3ccsc32)c[nH]1 (configuration not stated)
- inhibition [11]: 54%
- inhibition in vivo at 30 mg/kg [1]: 73%
- Ki [4]: 91 nM
- inhibition [12]: 87%
